Measurements as given in US10954231B2, “Anxiolytic compounds” (Bionomics Limited, priority 2006, dated 2021).

Assays:
Assay type in all cases: in vivo
mice [1] = test: Light dark test; conditions: oral, 60 min before test; for LD: significant anxiolytic effect (number of significant parameters): parameters: time spent in lit area, transitions into lit area, total walked distance in lit area; for minimal effective dose at 20 mg/kg: Mus musculus, 1 h, for examples marked * 20 mg/kg is the only dose tested, read-out: LD: minimum effective dose
Description: The light dark paradigm is based on a conflict between the innate aversion of rodents to brightly illuminated areas and on the spontaneous exploratory behaviour of the mice. If given a choice between a large brightly compartment versus a small dark compartment they spontaneously prefer the dark part.
The apparatus consists of two PVC (polyvinylchloride) boxes (19×19×15 cm) covered with Plexiglas. One of these boxes is darkened. The other box is illuminated by 100 W desk lamp placed 15 cm above and providing an illumination of about 4400 Lux. An opaque plastic tunnel (5×7×10 cm) separates the dark box from the illuminated one.
Animals were placed individually in the lit box, with head directed towards the tunnel. The time spent in the lit box and the number of transitions between the two boxes was recorded over a 5 min period after the first entry of the animal in the dark box. The total walked distance in the lit box was also recorded. Animals scored without entry into the […] were excluded from the analysis.
The compounds in Table 1 were tested in the light-dark test (indicated in the LD column). +=a significant anxiolytic effect in one of the three parameters measured in the LD model, ++ represents a significant effect in 2 parameters and +++ is significance in all three. The parameters are: time spent in the lit area, number of transitions into the lit area, or total walked distance in the lit area.
The test compound was prepared in 5% PEG400-0.9% NaCl.
(§1) It was administrated orally, 60 minutes before the implementation of the test.

mice [2] = test: Open field (dark), spontaneous motor activity; parameters: key to OF: sedation: NS: no sedation; S: sedation; conditions: oral, 60 min before test; for OF: sedation: 20 min recording; for OF: maximum non-sedating dose: for examples marked * 20 mg/kg is the only dose tested
Description: The open field (dark) is used to measure the spontaneous motor activity of mice in a quiet, dark environment. This system is useful for discriminating the sedating or stimulating properties of test compounds on spontaneous locomotion and can thus provide a preliminary indication of potentially adverse effects such as sedation.
The apparatus is an open plexiglass cage (52×52 cm) with 40 cm walls. The animal's movements are tracked by a computerised video tracking system, consisting of an overhead camera, diode sensors placed underneath the floor of the cage, computer and video analyser software (ViewPoint, France). The video camera is placed at 2.50 m above the cage and connected to the computer via a video capture card (Pinnacle Systems, France). The video tracking system is set in a way that the floor of the OF is divided into nine equal squares. The total number of crossed squares and the total walked distance are recorded.
Each animal is singly placed in a corner of the apparatus and its locomotor activity is automatically recorded over a period of 20 minutes.
The apparatus is cleaned between each animal with alcohol (70%).
The below items were tested in the Open Field as indicated by an entry in the OF column. NS=no sedation; S=sedation. The maximum non-sedating dose in mg/kg is shown.
Test compound was prepared in 5% PEG400−0.9% NaCl. It was administered orally, 60 minutes before the implementation of the test.

rat = test: Elevated plus maze; parameters: key to EPM rat: significant anxiolytic effect (number of significant parameters): +: a significant anxiolytic effect in one of the three parameters measured in the LD model; ++: represents a significant effect in 2 parameters; +++: is significance in all three; conditions: oral, 60 min before test
mice [3] = test: Marble burying test; conditions: oral, 60 min before test, 20 min session
Description: The Marble Burying test is used as a model for both anxiety and obsessive compulsive disorders. Mice have a natural tendency to bury marbles under the bedding when placed in a cage with rows of evenly spaced marbles on the floor. Suppression of this spontaneous burying has been used as a measure of anxiolytic drug action. Mice pre-treated with benzodiazepines and different classes of antidepressants bury less marbles when compared to the control mice
The apparatus consists of transparent polycarbonate cages (30 cm×18 cm×19 cm) containing a 5 cm layer of fine sawdust bedding and 20 glass marbles (diameter: 1.5 cm) spaced evenly along the walls of the cage. Each animal is placed individually in the cage where it remains for a 20 min test session. On termination of the test session the animals are removed from the cage and the number of marbles at least two-thirds buried in the sawdust is recorded.
Example 1 was tested in the Marble Burying model. The minimum effective dose in mg/kg is indicated in the MB column in Table 1.
The test compound was prepared in 5% PEG400−0.9% NaCl.
as §1

| Compound | LD: significant anxiolytic effect (number of significant parameters) (mice [1]) | OF: sedation (mice [2]) | OF: maximum non-sedating dose (mice [2]) [mg/kg] | EPM rat: minimum effective dose (rat) [mg/kg] | EPM rat: significant anxiolytic effect (number of significant parameters) (rat; parameters: time spent in open arms, transitions into open arms, total walked distance in open arms) | MB: minimum effective dose (mice [3]) [mg/kg] | minimal effective dose at 20 mg/kg (mice [1]) [mg/kg] |
| --- | --- | --- | --- | --- | --- | --- | --- |
| CCn1cc(C(=O)N2CCOCC2)c(=O)c2cc(NC3Cc4ccccc4C3)cnc21 [Example 1, Morpholino 6-(2,3-dihydro-1H-inden-2-yl)amino-1-ethyl-1,4-dihydro-4-oxo-1,8-naphthyridine-3-carboxamide] | ++ | NS | 100 | 0.1 | +++ | 1 |  |
| CCn1cc(C(=O)N2CCOCC2)c(=O)c2nc(NC3Cc4ccccc4C3)ccc21 [Example 2, Morpholino 6-(2,3-dihydro-1H-inden-2-ylamino)-1-ethyl-1,4-dihydro-4-oxo-1,5-naphthyridine-3-carboxamide] | +++ | S | 5 |  |  |  | 30 |
| CCn1cc(C(=O)N2CCOCC2)c(=O)c2cc(NC3Cc4ccccc4C3)ncc21 [Example 3, morpholino 6-(2,3-dihydro-1H-inden-2-ylamino)-1-ethyl-1,4-dihydro-4-oxo-1,7-naphthyridine-3-carboxamide] | ++ |  |  |  |  |  |  |
| CCn1cc(C(=O)N2CCN(C)CC2)c(=O)c2cc(NC3Cc4ccccc4C3)cnc21 [Example 4, Methylpiperazino 6-(2,3-dihydro-1H-inden-2-ylamino)-1-ethyl-1,4-dihydro-4-oxo-1,8-naphthyridine-3-carboxamide] | ++ |  |  |  |  |  | 20 |
| CCn1cc(C(=O)NC2CC2)c(=O)c2cc(NC3Cc4ccccc4C3)cnc21 [Example 5, Cyclopropylamino 6-(2,3-dihydro-1H-inden-2-ylamino)-1-ethyl-1,4-dihydro-4-oxo-1,8-naphthyridine-3-carboxamide] | + |  |  |  |  |  | 20 |
| CCN(CC)C(=O)c1cn(CC)c2ncc(NC3Cc4ccccc4C3)cc2c1=O [Example 6] | ++ | NS | 20 |  |  |  | 20 |
| CCOC(=O)c1cn(CC)c2ncc(NC(=O)c3cc(OC)c(OC)c(OC)c3)cc2c1=O [Example 7, Ethyl 6-(3,4,5-trimethoxybenzoylamide)-1-ethyl-1,4-dihydro-4-oxo-1,8-naphthyridine-3-carboxylate] | ++ | S | 20 |  |  |  | 20 |
| CCn1cc(C(=O)Nc2ccc(F)cc2)c(=O)c2cc(NC3Cc4ccccc4C3)cnc21 [Example 8] | ++ | NS | 20 |  |  |  | 20 |
| CCn1cc(C(=O)Nc2ccc(-c3ccccc3)cc2)c(=O)c2cc(NC3Cc4ccccc4C3)cnc21 [Example 9, 4-biphenylamino-6-(2,3-dihydro-1H-inden-2-ylamino)-1-ethyl-1,4-dihydro-4-oxo-1,8-naphthyridine-3-carboxamide] | +++ | NS | 20 |  |  |  | 20 |
| CCOC(=O)c1cn(CC)c2ncc(NC(=O)C(C)C)cc2c1=O [Example 10, Ethyl 6-(isobutyrylamide)-1-ethyl-1,4-dihydro-4-oxo-1,8-naphthyridine-3-carboxylate] | +++ | NS | 20 |  |  |  | 20 |
